Patent US20070117743A1, “New antitumoral compounds” (priority 2003, published 2007)

Tests used:
Assay type in all cases: cell-based, human
[1] = test system: A-549; test: SRB colorimetric assay of cell growth and viability, A-549; details: 48 hours exposure; for GI50: read-out: GI50 A-549; for CC50: read-out: LC50 A-549
[2] = test system: SK-MEL-28; test: SRB colorimetric assay of cell growth and viability, SK-MEL-28; details: 48 hours exposure; for CC50: read-out: LC50 MEL-28
[3] = test system: HT-29; test: SRB colorimetric assay of cell growth and viability, HT-29; details: 48 hours exposure; for GI50: read-out: GI50 HT-29; for CC50: read-out: LC50 HT-29
[4] = test system: LoVo; test: SRB colorimetric assay of cell growth and viability, LoVo; details: 48 hours exposure; for CC50: read-out: LC50 LOVO
[5] = test system: LoVo-Dox; test: SRB colorimetric assay of cell growth and viability, LoVo-Dox; details: 48 hours exposure
How it was run: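 First, 5×10^3 cells per well attach for 18 hours in RPMI 1640 with 10% FBS at 37° C and 5% CO2. Next, samples spanning 10 to 10^−8 μg/mL are added for 48 hours. Finally, cells are fixed with TCA, stained with SRB for 10 minutes and read at 490 nm.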

[6] = test system: DU-145; test: SRB colorimetric assay of cell growth and viability, DU-145; details: 48 hours exposure
[7] = test system: LNCaP; test: SRB colorimetric assay of cell growth and viability, LNCaP; details: 48 hours exposure; for GI50: read-out: GI50 LN-caP; for CC50: read-out: LC50 LN-caP
[8] = test system: IGROV-1; test: SRB colorimetric assay of cell growth and viability, IGROV-1; details: 48 hours exposure
[9] = test system: IGROV-ET; test: SRB colorimetric assay of cell growth and viability, IGROV-ET; details: 48 hours exposure; for CC50: read-out: LC50 IGROV-ET
[10] = test system: SK-OV-3; test: SRB colorimetric assay of cell growth and viability, SK-OV-3; details: 48 hours exposure; for GI50: read-out: GI50 SKOV-3; for CC50: read-out: LC50 SKOV-3
From the text: The finality of this assay is to interrupt the growth of a “in vitro” tumor cell culture by means a continued exhibition of the cells to the sample to be testing.
A colorimetric type of assay, using sulforhodamine B (SRB) reaction has been adapted for a quantitative measurement of cell growth and viability [following the technique described by Philip Skehan, et al. (1990), New colorimetric cytotoxicity assay for anticancer drug screening, J. Natl. Cancer Inst., 82:1107-1112].
This form of the assay employs 96 well cell culture microplates of 9 mm diameter (Faircloth, 1988; Mosmann, 1983). Most of the cell lines are obtained from American Type Culture Collection (ATCC) derived from different human cancer types.
Cells are maintained in RPMI 1640 10% FBS, supplemented with 0.1 g/l penicillin and 0.1 g/l streptomycin sulfate and then incubated at 37° C., 5% CO2 and 98% humidity. For the experiments, cells were harvested from subconfluent cultures using trypsin and resuspended in fresh medium before plating.
Cells are seeded in 96 well microtiter plates, at 5×10^3 cells per well in aliquots of 195 μL medium, and they are allowed to attach to the plate surface by growing in drug free medium for 18 hours. Afterward, samples are added in aliquots of 5 μL in a ranging from 10 to 10^−8 μg/mL, dissolved in DMSO:EtOH:PBS (0.5:0.5:99). After 48 hours exposure, the antitumor effect are measured by the SRB methodology: cells are fixed by adding 50 μL of cold 50% (wt/vol) trichloroacetic acid (TCA) and incubating for 60 minutes at 4° C. Plates are washed with deionized water and dried. One hundred μL of SRB solution (0.4% wt/vol in 1% acetic acid) is added to each microtiter well and incubated for 10 minutes at room temperature. Unbound SRB is removed by washing with 1% acetic acid. Plates are air dried and bound stain is solubilized with Tris buffer. Optical densities are read on a automated spectrophotometric plate reader at a single wavelength of 490 nm.
The values for mean+/− SD of data from triplicate wells are calculated. Some parameters for cellular responses can be calculated: GI=growth inhibition, TGI=total growth inhibition (cytostatic effect) and LC=cell killing (cytotoxic effect).

[11] = test system: K-562; test: SRB colorimetric assay of cell growth and viability, K-562; details: 48 hours exposure; for CC50: read-out: LC50 K-562
[12] = test system: PANC-1; test: SRB colorimetric assay of cell growth and viability, PANC-1; details: 48 hours exposure; for CC50: read-out: LC50 PANC-1

In the case of `C/C=C1\NC(=O)[C@H](Cc2ccccc2)NC(=O)[C@@H](C(C)C)NC(=O)[C@@H]([C@@H](C)CC)NC(=O)[C@H](NC(=O)[C@H](NC(=O)[C@H](CCCN)NC(=O)[C@H]2CCCN2C(=O)[C@H](NC(=O)[C@@H](NC(=O)[C@@H](NC(=O)[C@H](NC(=O)Cc2ccc(C(F)(F)F)cc2)C(C)C)[C@@H](C)O)C(C)C)C(C)C)[C@@H](C)CC)[C@@H](C)OC(=O)[C@H](C(C)C)NC1=O` [Compound 25, [p-CF3PhAc^14]-KF], the “TGI A-549” value [1] is reported as 9.67E−07 Molar, the GI50 [1] is reported as 0.297 µM and the CC50 [1] is reported as 3.24 µM. The GI50 [2] was 1.4 µM, the “TGI MEL-28” value [2] was 2.14E−05 Molar and the CC50 [2] was 4.06 µM. For the same compound, the “TGI HT-29” value [3] was 1.41E−06 Molar, the GI50 [3] was 0.555 µM and the CC50 [3] was 3.32 µM. The GI50 [4] was 0.203 µM, the “TGI LOVO” value [4] was 4.59E−07 Molar and the CC50 [4] was 1.61 µM. For the same compound, the GI50 [5] was 0.176 µM, the “TGI LOVO-DOX” value [5] was 3.92E−07 Molar and the CC50 ([5]; read-out: LC50 LOVO-DOX) was 1.43 µM. The GI50 [6] was 0.251 µM, the LC50 (concentration causing 50% net cell kill) [6] was 2.38 µM and the “TGI DU-145” value [6] was 7.86E−07 Molar. For the same compound, the “TGI LN-caP” value [7] was 1.19E−06 Molar, the GI50 [7] was 0.32 µM and the CC50 [7] was 3.66 µM. For the same compound, the GI50 [8] was 0.252 µM, the LC50 (concentration causing 50% net cell killing) [8] was 1.96 µM and the “TGI IGROV” value [8] was 4.54E−07 Molar. For the same compound, the GI50 [9] was 0.2 µM, the “TGI IGROV-ET” value [9] was 3.23E−07 Molar and the CC50 [9] was 0.521 µM. For the same compound, the “TGI SKOV-3” value [10] was 3.29E−07 Molar, the GI50 [10] was 0.126 µM and the CC50 [10] was 1.13 µM. The GI50 [11] was 1.42 µM, the “TGI K-562” value [11] was 3.06E−06 Molar and the CC50 [11] was 6.44 µM. The GI50 [12] was 1.58 µM, the “TGI PANC-1” value [12] was 3.07E−06 Molar and the CC50 [12] was 5.96 µM.
With `C/C=C1\NC(=O)[C@H](Cc2ccccc2)NC(=O)[C@@H](C(C)C)NC(=O)[C@@H]([C@@H](C)CC)NC(=O)[C@H](NC(=O)[C@H](NC(=O)[C@H](CCCN)NC(=O)[C@H]2CCCN2C(=O)[C@H](NC(=O)[C@@H](NC(=O)[C@@H](NC(=O)[C@H](NC(=O)CCCCC(C)(F)F)C(C)C)[C@@H](C)O)C(C)C)C(C)C)[C@@H](C)CC)[C@@H](C)OC(=O)[C@H](C(C)C)NC1=O` [Compound 28, [6,6-dFHep^14]-KF] the “TGI A-549” value [1] was 1.04E−06 Molar, the GI50 [1] was 0.328 µM and the CC50 [1] was 4.25 µM. For the same compound, the GI50 [2] was 1.47 µM, the “TGI MEL-28” value [2] was 2.55E−06 Molar and the CC50 [2] was 4.41 µM. The “TGI HT-29” value [3] was 1.54E−06 Molar, the GI50 [3] was 0.649 µM and the CC50 [3] was 3.63 µM. For the same compound, the GI50 [4] was 0.196 µM, the “TGI LOVO” value [4] was 3.70E−07 Molar and the CC50 [4] was 0.872 µM. For the same compound, the GI50 [5] was 0.172 µM, the “TGI LOVO-DOX” value [5] was 3.18E−07 Molar and the GI50 [6] was 0.215 µM. The LC50 (concentration causing 50% net cell kill) [6] was 2.09 µM, the “TGI DU-145” value [6] was 5.59E−07 Molar and the “TGI LN-caP” value [7] was 1.09E−06 Molar. For the same compound, the GI50 [7] was 0.363 µM, the CC50 [7] was 3.1 µM and the GI50 [8] was 0.334 µM. The LC50 (concentration causing 50% net cell killing) [8] was 2.55 µM, the “TGI IGROV” value [8] was 7.86E−07 Molar and the GI50 [9] was 0.228 µM. The “TGI IGROV-ET” value [9] was 3.59E−07 Molar, the CC50 [9] was 0.568 µM and the “TGI SKOV-3” value [10] was 3.36E−07 Molar. For the same compound, the GI50 [10] was 0.145 µM, the CC50 [10] was 1.01 µM and the GI50 [11] was 1.88 µM. The “TGI K-562” value [11] was 2.99E−04 Molar, the CC50 [11] was 4.75 µM and the GI50 [12] was 1.48 µM. The “TGI PANC-1” value [12] was 2.52E−06 Molar and the CC50 [12] was 4.3 µM.
